Results taken from patent EP1044000B1, “COMBINATION THERAPY FOR THE TREATMENT OF AIDS” (MERCK & CO., INC., priority 1997, dated 1999).
Read-outs that look alike come from different tables or passages of the source.

Test: Pharmacokinetic study of Compound A in healthy human males (Example 10)
Type: in vivo
Settings: male, plasma, po, suspension of sulfate salt; for Tmax: mean of 6 subjects; for Cmax / AUC: mean of 6 subjects (CV %); for concentration at 8 h: plasma 8 hours after dosing, read-out: C8 hrs; for concentration at 12 h: plasma 12 hours after dosing, read-out: C12 hrs
Description: A double-blind, single-rising dose, alternating two-panel, four-period, placebo-controlled study was conducted for Compound A in healthy adult males in the fasted state. Single doses of 20, 50, 100, 200, 400, 800 and 1200 mg of Compound A, or placebo, were administered as an oral suspension of the sulfate salt form of Compound A in sterile water. Each subject received increasing single oral doses of Compound A or placebo during each of the four treatment periods in alternate panels. Panel A dosage levels were 20, 100, 400 mg, and 400 mg with food. Panel B dosage levels were 50, 200, 800 and 1200 mg. For each period, 6 subjects received Compound A and 2 subjects received placebo as allocated by a randomized schedule. In Panel A, subjects who received 400 mg of Compound A also received 400 mg of Compound A with food. The safety of the subjects was monitored prior and subsequent to dosing by clinical adverse event reporting, measurement of vital signs, physical examinations, blood and urine laboratory safety tests, and ECGs. […]

[1] = 50 mg, 50 mg single oral dose, fasted
[2] = 100 mg, 100 mg single oral dose, fasted
[3] = 200 mg, 200 mg single oral dose, fasted
[4] = 400 mg, 400 mg single oral dose, fasted
[5] = 400 mg, 400 mg single oral dose, fasted, CV not determinable
[6] = 400 mg, 400 mg w/food, single oral dose
[7] = 800 mg, 800 mg single oral dose, fasted
[8] = 800 mg, 800 mg single oral dose, fasted, mean (CV %)
[9] = 1200 mg, 1200 mg single oral dose, fasted
[10] = 1200 mg, 1200 mg single oral dose, fasted, mean (CV %)

Molecule `CC(C)(C)NC(=O)[C@@H]1CN(Cc2cc3ccccc3o2)CCN1C[C@@H](O)C[C@@H](Cc1ccccc1)C(=O)N[C@H]1c2ccccc2C[C@H]1O` [Compound A, N-(2(R)-hydroxy-1(S)-indanyl)-2(R)-phenylmethyl-4-(S)-hydroxy-5-(1-(4-(2-benzo[b]furanylmethyl)-2(S)-N'-(t-butylcarboxamido)-piperazinyl))-pentaneamide] has a Tmax [1] of 0.6 h, a Cmax [1] of 12 nM and a Tmax [2] of 0.5 h. The Cmax [2] was 36 nM, the Tmax [3] was 0.7 h and the AUC [3] was 0.24 µM·h. It also gave a Cmax [3] of 85 nM, a concentration at 8 h (200 mg, 200 mg single oral dose, fasted, CV not determinable) of 5 nM and a Tmax [4] of 1.8 h. It also gave an AUC [4] of 0.66 µM·h, a Cmax [4] of 166 nM and a concentration at 8 h [5] of 15 nM. The concentration at 12 h [5] was 6 nM, the Tmax [6] was 4 h and the AUC [6] was 0.8 µM·h. For the same molecule, the Cmax [6] was 170 nM, the concentration at 8 h (400 mg, 400 mg w/food, single oral dose, mean (CV %)) was 32 nM and the concentration at 12 h (400 mg, 400 mg w/food, single oral dose, CV not determinable) was 7 nM. The Tmax [7] was 2.6 h, the AUC [7] was 3.09 µM·h and the Cmax [7] was 568 nM. The concentration at 8 h [8] was 126 nM, the concentration at 12 h [8] was 45 nM and the Tmax [9] was 2.1 h. It also gave an AUC [9] of 7.28 µM·h, a Cmax [9] of 1350 nM and a concentration at 8 h [10] of 338 nM. The concentration at 12 h [10] was 128 nM.
